Data set [1] addresses T1, MMP-1FL (full length interstitial collagenase) (Homo sapiens, UniProt P03956).
T1 sequence (P03956 100-469): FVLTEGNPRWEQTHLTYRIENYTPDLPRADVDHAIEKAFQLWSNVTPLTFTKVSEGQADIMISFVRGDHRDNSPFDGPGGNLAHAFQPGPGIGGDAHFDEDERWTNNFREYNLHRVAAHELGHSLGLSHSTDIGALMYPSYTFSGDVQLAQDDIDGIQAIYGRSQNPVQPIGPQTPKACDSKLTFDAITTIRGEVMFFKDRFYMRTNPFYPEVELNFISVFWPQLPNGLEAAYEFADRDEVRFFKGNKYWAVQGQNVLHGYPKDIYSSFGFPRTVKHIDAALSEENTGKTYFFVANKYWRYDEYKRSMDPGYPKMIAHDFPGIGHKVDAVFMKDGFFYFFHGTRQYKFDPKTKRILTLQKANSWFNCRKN
Kind of data set: Thiopeptolide hydrolysis assay, full length interstitial collagenase. The format is biochemical. The settings on record: Table 3; full-length MMP01. From the text:
(§1) The assays measure the amount by which a test compound reduces the hydrolysis of a thiopeptolide substrate caused by a matrix metalloproteinase enzyme. Such assays are described in detail by Ye et al., in Biochemistry, 1992;31(45):11231-11235, which is incorporated herein by reference.
(§2) Thiopeptolide substrates show virtually no decomposition or hydrolysis in the absence of a matrix metalloproteinase enzyme. A typical thiopeptolide substrate commonly utilized for assays is Ac-Pro-Leu-Gly-thioester-Leu-Leu-Gly-OEt. A 100 μL assay mixture will contain 50 mM of 2-morpholinoethane sulfonic acid monohydrate (MES, pH 6.0) 10 mM CaCl2, 100 μM thiopeptolide substrate, and 1 mM 5,5′-dithio-bis-(2-nitro-benzoic acid) (DTNB). The thiopeptolide substrate concentration is varied from 10 to 800 μM to obtain Km and Kcat values. The change in absorbance at 405 nm is monitored on a Thermo Max microplate reader (molecular Devices, Menlo Park, Calif.) at room temperature (22° C.). The calculation of the amount of hydrolysis of the thiopeptolide substrate is based on E412=13600 m^−1 cm^−1 for the DTNB-derived product 3-carboxy-4-nitrothiophenoxide. Assays are carried out with and without matrix metalloproteinase inhibitor compounds, and the amount of hydrolysis is compared for a determination of inhibitory activity of the test compounds.
(§3) Several representative compounds have been evaluated for their ability to inhibit various matrix metalloproteinase enzymes. Table 1 below presents inhibitory activity as IC50's in micromolar for representative invention compounds. In the table, MMP-1FL refers to full length interstitial collagenase; MMP-2FL refers to full length Gelatinase A; MMP-3CD refers to the catalytic domain of stromelysin; MMP-7FL refers to full length matrilysin; MMP-9FL refers to full length Gelatinase B; MMP-13CD refers to the catalytic domain of collagenase 3; and MMP-14CD refers to the catalytic domain of MMP-14. Test compounds were evaluated at various concentrations in order to determine their respective IC50 values, the micromolar concentration of compound required to cause a 50% inhibition of the hydrolytic activity of the respective enzyme.

For data set [2], the target named is T2, MMP-2FL (full length Gelatinase A) (Homo sapiens, UniProt P08253).
T2 sequence (P08253 110-660): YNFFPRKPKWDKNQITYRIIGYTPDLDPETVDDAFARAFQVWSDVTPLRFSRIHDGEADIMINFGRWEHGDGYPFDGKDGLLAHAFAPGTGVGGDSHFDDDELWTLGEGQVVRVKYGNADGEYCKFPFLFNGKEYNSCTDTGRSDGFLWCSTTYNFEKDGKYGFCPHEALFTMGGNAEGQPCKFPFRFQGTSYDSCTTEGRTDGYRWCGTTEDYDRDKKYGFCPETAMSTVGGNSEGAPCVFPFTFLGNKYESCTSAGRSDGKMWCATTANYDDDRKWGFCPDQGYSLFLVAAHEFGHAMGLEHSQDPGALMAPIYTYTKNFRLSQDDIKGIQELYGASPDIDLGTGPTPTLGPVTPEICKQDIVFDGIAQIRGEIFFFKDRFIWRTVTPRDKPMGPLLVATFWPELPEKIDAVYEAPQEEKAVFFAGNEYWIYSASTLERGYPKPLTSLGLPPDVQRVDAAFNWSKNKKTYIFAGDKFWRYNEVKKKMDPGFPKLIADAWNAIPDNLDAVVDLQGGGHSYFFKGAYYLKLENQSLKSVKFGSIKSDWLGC
As to the kind of experiment: Thiopeptolide hydrolysis assay, full length Gelatinase A. The class given is biochemical. The settings on record: Table 3; full-length MMP02.
Excerpt: as §1, §2, §3

Data set [3] addresses MMP-3CD (catalytic domain of stromelysin) (Homo sapiens, UniProt P08254). As to the kind of experiment: Thiopeptolide hydrolysis assay, catalytic domain of stromelysin. The format is biochemical. Conditions: Table 3; MMP03 catalytic domain.
Excerpt: as §1, §2, §3

The target in data set [4] is T3, MMP-7FL (full length matrilysin) (Homo sapiens, UniProt P09237).
T3 sequence (P09237 95-267): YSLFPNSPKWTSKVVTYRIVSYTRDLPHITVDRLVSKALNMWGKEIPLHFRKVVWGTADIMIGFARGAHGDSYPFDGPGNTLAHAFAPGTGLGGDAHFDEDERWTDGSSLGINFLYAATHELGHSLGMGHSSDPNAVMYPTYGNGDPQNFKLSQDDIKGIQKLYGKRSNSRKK
As to the kind of experiment: Thiopeptolide hydrolysis assay, full length matrilysin. Conditions: Table 3; full-length MMP07. The format is biochemical.
Excerpt: as §1, §2, §3

Data set [5] addresses MMP-9FL (full length Gelatinase B) (Homo sapiens, UniProt P14780). Kind of data set: Thiopeptolide hydrolysis assay, full length Gelatinase B. The format is biochemical. The settings on record: Table 3; full-length MMP09.
Excerpt: as §1, §2, §3

Data set [6] deals with MMP-13CD (catalytic domain of collagenase 3) (Homo sapiens, UniProt P45452). As to the kind of experiment: Thiopeptolide hydrolysis assay, catalytic domain of collagenase 3. The format is biochemical. The settings on record: for pIC50: Table 2, read-out: MMP-13CD (IC50).
Excerpt: as §1, §2, §3

The target of data set [7] is MMP-14CD (catalytic domain of MMP-14) (Homo sapiens, UniProt P50281). Kind of data set: Thiopeptolide hydrolysis assay, catalytic domain of MMP-14. Conditions: Table 3; MMP-14 catalytic domain; read-out: IC50 (μM) MMP14 (CD). The format is biochemical.
Excerpt: as §1, §2, §3

Where [8] appears, read: Table 1, thiopeptolide substrate, read-out: IC50 (μM) Versus MMPs, MMP13 (CD).
The mark [9] stands for this setting: Table 3, MMP-13 catalytic domain, read-out: IC50 (μM) MMP13 (CD).

The text below walks through data of patent US6849648B2, “Phenylene alkyne matrix metalloproteinase inhibitors” (Warner-Lambert Company, priority 2001, dated 2005).

SMILES strings stand for the structures. pIC50: −log10 of the molar value. Where two headings read alike, the source gives them in different places.

Sequence of MMP-3CD (catalytic domain of stromelysin) (P08254 100-272 limits assumed): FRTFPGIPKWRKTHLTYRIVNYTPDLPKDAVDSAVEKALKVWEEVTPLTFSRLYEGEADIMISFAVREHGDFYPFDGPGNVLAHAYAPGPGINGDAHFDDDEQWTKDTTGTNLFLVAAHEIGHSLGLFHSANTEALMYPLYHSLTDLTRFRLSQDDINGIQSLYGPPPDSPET
Sequence of MMP-9FL (full length Gelatinase B) (P14780 94-707, species assumed): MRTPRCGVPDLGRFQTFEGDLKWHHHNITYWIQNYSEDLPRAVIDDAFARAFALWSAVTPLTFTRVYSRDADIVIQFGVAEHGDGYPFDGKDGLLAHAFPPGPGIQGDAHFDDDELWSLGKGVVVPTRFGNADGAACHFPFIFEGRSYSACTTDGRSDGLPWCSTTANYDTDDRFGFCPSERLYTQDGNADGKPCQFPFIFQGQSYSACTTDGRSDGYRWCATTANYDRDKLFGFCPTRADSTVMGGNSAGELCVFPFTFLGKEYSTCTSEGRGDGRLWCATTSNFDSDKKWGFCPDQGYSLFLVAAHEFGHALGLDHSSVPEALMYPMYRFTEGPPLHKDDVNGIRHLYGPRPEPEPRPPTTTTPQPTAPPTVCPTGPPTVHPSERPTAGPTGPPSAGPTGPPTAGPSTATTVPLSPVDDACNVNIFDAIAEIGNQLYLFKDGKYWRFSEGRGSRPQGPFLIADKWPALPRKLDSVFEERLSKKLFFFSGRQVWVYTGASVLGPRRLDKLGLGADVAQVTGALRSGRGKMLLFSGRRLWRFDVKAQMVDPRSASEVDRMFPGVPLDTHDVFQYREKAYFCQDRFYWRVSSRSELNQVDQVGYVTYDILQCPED

In the case of `CN1C(=O)N(Cc2ccccc2)S(=O)(=O)c2cc(C#CCc3ccccc3)ccc21` [Example 1, 2-Benzyl-4-methyl-1,1-dioxo-7-(3-phenyl-prop-1ynyl)-1,4-dihydro-2H-1l^6-benzo[1,2,4]thiadiazin-3-one], the melting point (in general, the temperature, or range, at which the solid turns liquid) was 125 to 127 °C. Also, in data set [1], the IC50 (as a rule, the concentration at which inhibition is half-maximal) was more than 100 µM. The molecule also had an IC50 in data set [2] of more than 30 µM. The molecule further came in with an IC50 in data set [3] of more than 30 µM. Moreover, the 50% inhibitory concentration (IC50) in data set [4] was more than 30 µM. In data set [5], this molecule gave a 50% inhibitory concentration (IC50) of more than 100 µM. Also, in data set [6] (setting [8]), the IC50 came out at 2.2 µM. Also, in data set [7], the half-maximal inhibitory concentration (IC50) was more than 100 µM.
In turn, `CN1C(=O)N(Cc2ccc(C(=O)O)cc2)S(=O)(=O)c2cc(C#CCc3ccccc3)ccc21` [Example 2, 4-[4-Methyl-1,1,3-trioxo-7-(3-phenyl-prop-1-ynyl)-3,4-dihydro-1H-1l^6-benzo[1,2,4]thiadiazin-2-ylmethyl]-benzoic acid] registered a melting point of 208 to 209 °C. In data set [1], this molecule yielded a concentration for half-maximal inhibition (IC50) of more than 30 µM. Further, the half-inhibitory concentration (IC50) in data set [2] is more than 30 µM. Also, the concentration for half-maximal inhibition (IC50) in data set [3] is more than 10 µM. Moreover, in data set [4], the half-inhibitory concentration (IC50) is more than 30 µM. Also, the half-inhibitory concentration (IC50) in data set [5] was more than 30 µM. In data set [6] (setting [8]), the half-maximal inhibitory concentration (IC50) was determined as 0.0042 µM. The concentration for half-maximal inhibition (IC50) in data set [7] was more than 30 µM.
`O=C1Nc2ccc(C#CCc3ccccc3)cc2S(=O)(=O)N1Cc1ccccc1` [Example 3, 2-Benzyl-1,1-dioxo-7-(3-phenyl-prop-1-ynyl)-1,4-dihydro-2H-1l^6-benzo[1,2,4]thiadiazin-3-one]: the half-inhibitory concentration (IC50) in data set [1] is more than 30 µM; in data set [2] it was more than 100 µM; in data set [3], more than 30 µM; in data set [4], more than 30 µM; in data set [5], more than 30 µM; in data set [6] (setting [9]) it was 0.12 µM. Moreover, the half-inhibitory concentration (IC50) in data set [7] was more than 30 µM.
As to `N#Cc1ccc(CNC(=O)c2cccc(C#CCn3ccnn3)c2)cc1` [Example 4, N-(4-Cyano-benzyl)-3-(3-[1,2,3]-triazol-1-yl-prop-1-ynyl)-benzamide], the pIC50 (commonly the negative decadic logarithm of the IC50, by convention in mol/L) in data set [6] (thiopeptolide substrate) was 4.00.
Same read-out and setting: with `N#Cc1ccc(CNC(=O)c2cccc(C#CCn3cncn3)c2)cc1` [Example 5, N-(4-Cyano-benzyl)-3-(3-[1,2,4]-triazol-1-yl-prop-1-ynyl)-benzamide] the figure was 4.18.
Same read-out and setting: then `O=C(O)c1ccc(CNC(=O)c2cccc(C#CCc3ccccc3)c2)cc1` [Example 6], with 7.54.
As for `CN1c2ccc(C#CCc3ccccc3)cc2C(=O)N(Cc2ccc(C(=O)O)cc2)[S+]1[O-]` (stereo not shown) [Example 15, 4-[1-Methyl-2,4-dioxo-6-(3-phenyl-prop-1-ynyl)-1,4-dihydro-2H-2λ^4-benzo[1,2,6]thiadiazin-3-ylmethyl]benzoic acid], the IC50 in data set [1] is more than 30 µM; in data set [2] it was more than 30 µM; in data set [3], more than 10 µM; in data set [4], 24 µM; in data set [5] it was more than 100 µM; in data set [6] (setting [9]), 0.0104 µM. Also, the concentration for half-maximal inhibition (IC50) in data set [7] was more than 30 µM.
For the molecule `CN1c2ccc(C#CCc3ccccc3)cc2C(=O)N(Cc2ccc(C(=O)O)cc2)S1(=O)=O` [Example 16, 4-[1-methyl-2,2,4-trioxo-6-(3-phenylprop-1-ynyl)-1,4-dihydro-2H-2λ^6-benzo[1,2,6]-thiadiazin-3-ylmethyl]benzoic acid], the IC50 is more than 30 µM in data set [1]; more than 30 µM in data set [2]; 12 µM in data set [3]; more than 30 µM in data set [4]; more than 30 µM in data set [5]; 0.0315 µM in data set [6] (setting [9]). The 50% inhibitory concentration (IC50) in data set [7] was more than 30 µM.
With `O=C(O)c1ccc(CN2C(=O)Nc3ccc(C#CCc4ccccc4)cc3S2(=O)=O)cc1` [Example 17, 4-[1,1,3-Trioxo-7-(3-phenyl-prop-1-ynyl)-3,4-dihydro-1H-1λ^6-benzo[1,2,4]thiadiazin-2-ylmethyl]-benzoic acid], the 50% inhibitory concentration (IC50) was more than 30 µM in data set [1]; more than 100 µM in data set [2]; 5.6 µM in data set [3]; 16 µM in data set [4]; more than 100 µM in data set [5]; 0.00517 µM in data set [6] (setting [9]). The IC50 in data set [7] is more than 30 µM.
For `COc1ccc(CN2C(=O)Nc3ccc(C#CCc4ccccc4)cc3S2(=O)=O)cc1` [Example 18, 2-(4-Methoxy-benzyl)-1,1-dioxo-7-(3-phenyl-prop-1-ynyl)-1,4-dihydro-2H, 1λ^6-benzo[1,2,4]thiadiazin-3-one], the IC50 in data set [1] was more than 30 µM; in data set [2], more than 30 µM; in data set [3], more than 30 µM; in data set [4], more than 10 µM; in data set [5], more than 30 µM; in data set [6] (setting [9]), 0.185 µM. Further, the IC50 in data set [7] is more than 30 µM.
As to `O=C(O)c1ccc(CN2C(=O)Nc3ccc(C#CCCc4ccccc4)cc3S2(=O)=O)cc1` [Example 19, 4-[1,1,3-Trioxo-7-(4-phenyl-but-1-ynyl)-3,4-dihydro-1H-1λ^6-benzo[1,2,4]thiadiazin-2-ylmethyl]-benzoic acid], the IC50 in data set [6] (setting [9]) came to 0.079 µM.
